Columns and labels:
[1] = target: T1, Metallo-beta-lactamase type 2 (Bacteria, UniProt C7C422); assay: Inhibition of bacterial NDM-1
[2] = target: Metallo-beta-lactamase type 2 (Bacteria) (UniProt C7C422); assay: Inhibition of bacterial NDM-1 assessed as substrate hydrolysis at 50 uM using imipenem as substrate by spectrophotometric analysis relative to control
[3] = test system: Bacteria; assay: Inhibition of bacterial VIM-2 assessed as substrate hydrolysis at 50 uM using imipenem as substrate by spectrophotometric analysis relative to control
[4] = test system: Bacteria; assay: Inhibition of bacterial IMP-1 assessed as substrate hydrolysis at 50 uM using imipenem as substrate by spectrophotometric analysis relative to control
[5] = target: T1, Metallo-beta-lactamase type 2; assay: Competitive inhibition of NDM-1 using imipenem as substrate by spectrophotometric analysis
[6] = test system: Klebsiella pneumoniae; assay: Potentiation of meropenem induced antibacterial activity against blaNDM-1 producing Klebsiella pneumoniae SI-518 assessed as reduction in meropenem MIC at 32 ug/ml (reference value: 128 ug/ml); type: functional; conditions: dose 32 µg/ml
[7] = test system: Escherichia coli; assay: Potentiation of meropenem induced antibacterial activity against blaNDM-1 producing Escherichia coli SI-004M assessed as reduction in meropenem MIC at 32 ug/ml (reference value: 64 ug/ml); type: functional; conditions: dose 32 µg/ml
[8] = test system: Escherichia coli; assay: Potentiation of meropenem induced antibacterial activity against blaNDM-4 producing Escherichia coli SI-G001 assessed as reduction in meropenem MIC at 32 ug/ml (reference value: 128 ug/ml); type: functional; conditions: dose 32 µg/ml
[9] = target: Metallo-beta-lactamase type 2 (Bacteria) (UniProt C7C422); assay: Inhibition of bacterial NDM-1 assessed as substrate hydrolysis at 100 uM using imipenem as substrate by spectrophotometric analysis relative to control
[10] = test system: Bacteria; assay: Inhibition of bacterial VIM-2 assessed as substrate hydrolysis at 100 uM using imipenem as substrate by spectrophotometric analysis relative to control
[11] = test system: Bacteria; assay: Inhibition of bacterial IMP-1 assessed as substrate hydrolysis at 100 uM using imipenem as substrate by spectrophotometric analysis relative to control

Chain of Metallo-beta-lactamase type 2 (Bacteria) (C7C422 whole entry): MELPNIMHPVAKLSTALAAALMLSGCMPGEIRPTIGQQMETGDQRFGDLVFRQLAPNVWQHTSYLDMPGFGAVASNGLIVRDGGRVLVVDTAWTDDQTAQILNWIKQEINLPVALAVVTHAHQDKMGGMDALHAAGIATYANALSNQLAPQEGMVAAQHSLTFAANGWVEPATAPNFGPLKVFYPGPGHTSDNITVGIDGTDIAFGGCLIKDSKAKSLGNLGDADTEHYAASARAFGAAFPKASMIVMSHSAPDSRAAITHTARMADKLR
T1 sequence (C7C422 whole entry): as above

SMILES	inhibition [2] [%]	inhibition [3] [%]	inhibition [4] [%]	other results
O=C(O)CN1CCN(CC(=O)O)CCN(CC(=O)O)CC1	–	–	–	Ki [1]: 5.1 µM
O=C1/C(=C/c2cn(Cc3cccc(O)c3)c3ccccc23)Oc2cc(O)cc(O)c21	78	< 10	31	Ki [5]: 16 µM; MIC [6]: 64 mg/L; MIC [7]: 64 mg/L; MIC [8]: 128 mg/L
N[C@@H](CN[C@@H](CN[C@@H](CC(O)O)C(=O)O)C(=O)O)C(=O)O	–	–	–	Ki [1]: 0.011 µM
O=C1/C(=C/c2cn(CCCc3ccccc3)c3ccccc23)Oc2cc(O)cc(O)c21	68.7	< 10	41	Ki [5]: 17 µM; MIC [6]: 32 mg/L; MIC [7]: 32 mg/L; MIC [8]: 64 mg/L
CCCCn1cc(/C=C2\Oc3cc(O)cc(O)c3C2=O)c2cc(O)ccc21	< 10	< 10	30	–
Cn1cc(/C=C2\Oc3cc(O)ccc3C2=O)c2cc(Br)ccc21	18	< 10	39	–
COc1ccc(/C=C2\Oc3cc(O)cc(O)c3C2=O)c(OC)c1OC	14	< 10	20	–
O=C1/C(=C/c2ccc(O)cc2)Oc2cc(O)cc(O)c21	< 10	< 10	12.4	–
CCc1ccc(/C=C2\Oc3cc(O)cc(O)c3C2=O)cc1	55	< 10	24.9	–
O=C1/C(=C/c2ccc(Cl)cc2)Oc2c(O)cccc21	< 10	< 10	< 10	–
O=C1/C(=C/c2ccc(O)cc2O)Oc2cc(O)ccc21	< 10	< 10	< 10	–
O=C(O)[C@H](CCCn1c(-c2ccccc2)n[nH]c1=S)N(Cc1c[nH]cn1)Cc1c[nH]cn1	–	–	–	MIC [6]: ≤ 0.5 mg/L; MIC [7]: ≤ 0.5 mg/L; MIC [8]: ≤ 0.5 mg/L; inhibition [9]: 97%; inhibition [10]: 96%; inhibition [11]: 40%
COc1ccc(/C=C2\Oc3cc(O)ccc3C2=O)c(OC)c1	17	< 10	17.9	–
O=C1/C(=C/c2ccccc2O)Oc2cc(O)ccc21	< 10	< 10	< 10	–
O=C1/C(=C/c2cn(CC3CCCCC3)c3ccccc23)Oc2cc(O)cc(O)c21	72	< 10	44	Ki [5]: 2.5 µM; MIC [6]: 16 mg/L; MIC [7]: 64 mg/L; MIC [8]: 64 mg/L
O=C1/C(=C/c2ccc(N3CCCCC3)cc2)Oc2cc(O)cc(O)c21	74	17	20	Ki [5]: 4.8 µM; MIC [6]: 64 mg/L; MIC [7]: 64 mg/L; MIC [8]: 128 mg/L
COc1cc(O)ccc1/C=C1\Oc2cc(O)ccc2C1=O	< 10	< 10	13	–
O=C1/C(=C/c2ccc(O)cc2O)Oc2c1ccc(O)c2I	< 10	13	15	–
COc1cc(/C=C2\Oc3ccccc3C2=O)ccc1O	< 10	< 10	< 10	–

SMILES	inhibition [2] [%]	inhibition [3] [%]	inhibition [4] [%]	other results
CC(C)(C)CCn1cc(/C=C2\Oc3cc(O)cc(O)c3C2=O)c2ccccc21	11.2	< 10	28	–
COc1ccc(/C=C2\Oc3cc(OC)cc(OC)c3C2=O)c(OC)c1	< 10	< 10	< 10	–
C=CCn1cc(/C=C2\Oc3cc(O)cc(O)c3C2=O)c2ccccc21	< 10	< 10	16	–
COc1ccc(/C=C2\Oc3cc(O)cc(O)c3C2=O)c(OC)c1	52	< 10	43.6	–
COc1ccc(/C=C2\Oc3c(ccc(O)c3O)C2=O)c(OC)c1	30	10.3	28	–
O=C1/C(=C/c2ccc(O)cc2O)Oc2c1ccc(O)c2O	20	< 10	24	–
O=C1/C(=C/c2ccc(C3CCCCC3)cc2)Oc2cc(O)cc(O)c21	16	< 10	< 10	–
O=C1/C(=C/c2ccc(O)c(O)c2)Cc2cc(O)cc(O)c21	–	–	–	Ki [1]: 4.1 µM
CN(C)c1ccc(/C=C2\Oc3cc(O)cc(O)c3C2=O)c(O)c1	55	< 10	27	–
Cc1ccc(O)c(/C=C2\Oc3cc(O)cc(O)c3C2=O)c1	< 10	< 10	12	–
COc1cc(O)ccc1/C=C1\Oc2ccccc2C1=O	< 10	< 10	< 10	–
O=C1/C(=C/c2cn(Cc3cccc(Br)c3)c3ccccc23)Oc2cc(O)cc(O)c21	69	< 10	43	Ki [5]: 5.5 µM; MIC [6]: 32 mg/L; MIC [7]: 32 mg/L; MIC [8]: 64 mg/L
O=C1/C(=C/c2c(O)cc(O)cc2O)Oc2cc(O)ccc21	< 10	< 10	< 10	–
O=C1/C(=C/c2ccc(O)cc2O)Oc2ccccc21	< 10	< 10	< 10	–
O=C1/C(=C/c2ccc(O)cc2O)Oc2c(O)cccc21	< 10	< 10	< 10	–
CCCCc1ccc(/C=C2\Oc3c(ccc(O)c3O)C2=O)cc1	< 10	< 10	< 10	–
O=C1/C(=C/c2ccccc2O)Oc2cc(O)cc(O)c21	< 10	< 10	14	–
COc1ccc(/C=C2\Oc3cc(O)cc(O)c3C2=O)cc1OC	23	< 10	21	–
COc1ccc(/C=C2\Oc3c(ccc(O)c3O)C2=O)c(O)c1	84.5	< 10	49	Ki [5]: 1.7 µM; MIC [6]: 32 mg/L; MIC [7]: 32 mg/L; MIC [8]: 128 mg/L
